# Read-outs that look alike come from different tables or passages of the source.
# Assays:
# [1] = system: AtHAB1ΔN with CsPYL1^5m; experiment: PP2C inhibition assay, HAB1 with CsPYL1^5m; type: biochemical, Citrus sinensis (CsPYL1^5m); Arabidopsis thaliana (HAB1)
# Experimental: His-tagged receptors and phosphatases were purified using nickel–nitrilotriacetic acid (Ni-NTA) affinity chromatography. Protein integrity was analyzed by SDS–polyacrylamide gel electrophoresis, followed by InstantBlue staining. Phosphatase activity was measured using p-Nitrophenyl Phosphate (pNPP) (25 mM) as substrate, 10 mM MnCl2,1 μM PP2C, and 2 μM of the indicated receptors. […] Assays were repeated twice. For dose-response experiments, IC50 values were obtained with GraphPad Prism 9 using a nonlinear regression curve fit. Each ligand concentration was tested in triplicate. Phosphatase activity of ABI1 was measured using RRA(phosphoT)VA peptide as a substrate, as described ([27]).
# [2] = target: T1, ABI1 with AtPYL1 (Arabidopsis thaliana, UniProt Q8VZS8); experiment: PP2C inhibition assay, ABI1 with AtPYL1; type: biochemical
# T1 construct: His; made in house
# T1 sequence (Q8VZS8 whole entry): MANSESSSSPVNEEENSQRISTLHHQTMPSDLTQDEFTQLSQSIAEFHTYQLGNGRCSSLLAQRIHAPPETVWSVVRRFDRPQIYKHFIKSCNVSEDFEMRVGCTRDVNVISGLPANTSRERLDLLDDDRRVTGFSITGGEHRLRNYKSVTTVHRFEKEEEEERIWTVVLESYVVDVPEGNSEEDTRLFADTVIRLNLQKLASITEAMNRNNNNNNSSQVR
# T1 sequence (P49597 whole entry partner): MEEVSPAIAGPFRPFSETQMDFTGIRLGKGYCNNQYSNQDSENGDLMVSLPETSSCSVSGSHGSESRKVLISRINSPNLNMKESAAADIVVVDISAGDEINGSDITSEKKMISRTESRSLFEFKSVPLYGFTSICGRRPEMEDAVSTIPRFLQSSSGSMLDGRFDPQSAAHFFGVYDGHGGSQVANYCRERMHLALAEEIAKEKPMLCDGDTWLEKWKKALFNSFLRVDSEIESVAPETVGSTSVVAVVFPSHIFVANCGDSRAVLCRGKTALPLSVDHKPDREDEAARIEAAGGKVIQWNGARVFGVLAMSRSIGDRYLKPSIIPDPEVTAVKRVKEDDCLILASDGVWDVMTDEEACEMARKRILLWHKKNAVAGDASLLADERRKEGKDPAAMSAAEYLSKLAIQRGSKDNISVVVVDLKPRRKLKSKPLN
# Experimental: (§1) His-tagged receptors and phosphatases were purified using nickel–nitrilotriacetic acid (Ni-NTA) affinity chromatography. Protein integrity was analyzed by SDS–polyacrylamide gel electrophoresis, followed by InstantBlue staining. Phosphatase activity was measured using p-Nitrophenyl Phosphate (pNPP) (25 mM) as substrate, 10 mM MnCl2,1 μM PP2C, and 2 μM of the indicated receptors. Proteins were incubated with the ligands for 10 min at room temperature. pNPP was then added to start the reactions, and the absorbance at 405 nm was monitored for 20 min in a ViktorX5 plate reader. Assays were repeated twice. For dose-response experiments, IC50 values were obtained with GraphPad Prism 9 using a nonlinear regression curve fit. Each ligand concentration was tested in triplicate. Phosphatase activity of ABI1 was measured using RRA(phosphoT)VA peptide as a substrate, as described ([27]). […]
# (§2) (D) Dose response analysis of iSB09 or ABA-dependent inhibition of ABI1 (blue and black lines, respectively) in presence of either AtPYL1 or AtPYR1. Values (average of duplicates) show PP2C activity after incubation with the indicated concentration of ligand and receptor at 1:2 ratio (1 µM phosphatase:2 µM receptor). […]
# (§3) whereas with AtPYR1 was 200 nM and 213 nM, for ABA and iSB09, respectively. Ligands were assayed
# [3] = target: T2, ABI1 with AtPYR1 (Arabidopsis thaliana, UniProt O49686); experiment: PP2C inhibition assay, ABI1 with AtPYR1; type: biochemical
# T2 construct: His; made in house
# T2 sequence (O49686 whole entry): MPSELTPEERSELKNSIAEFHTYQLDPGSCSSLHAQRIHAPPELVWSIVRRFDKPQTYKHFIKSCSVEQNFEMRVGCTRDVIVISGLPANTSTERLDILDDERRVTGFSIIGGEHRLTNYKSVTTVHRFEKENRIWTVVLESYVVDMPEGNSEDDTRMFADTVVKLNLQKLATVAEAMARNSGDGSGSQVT
# T2 sequence (P49597 whole entry partner): as the sequence (P49597 whole entry partner) above
# Experimental: as §1, §2, §3
# [4] = system: Arabidopsis thaliana seeds (WT Col-0, CsPYL1 and CsPYL1^5m lines); experiment: Seed germination assay; type: in vivo; conditions: Arabidopsis thaliana
# Experimental: For seed germination assays, seeds were stratified in the dark at 4°C for 3 days. Approximately 100 seeds of each genotype were sown on MS plates supplemented with six different ligand concentrations. The experiments were repeated three times. To score seed germination, radical emergence was analyzed at 24 hours after sowing.
# [5] = system: Nicotiana benthamiana WT plants; experiment: IR thermography of leaf temperature, N. benthamiana; type: in vivo; conditions: nontransformed leaves, 24 hours after spraying, 50 μM ABA or 100 μM iSB07 or iSB09, compared to mock
# Experimental: IR images were taken using a FLIR […] thermocamera 1 day after the treatment (for N. benthamiana) or 2 and 5 days (for S. lycopersicum). Quantification was performed using the FLIR tools software on fully expanded leaves by analyzing 10 sections per leaf. At least six plants per genotype and treatment were analyzed in each experiment. Experiments were repeated twice. The average plant temperature ± SD of all the plants for each treatment and genotype was calculated and used to report the increase in temperature produced by each treatment. Statistical comparisons among genotypes were performed by either pairwise t tests or one-way ANOVA.
# [6] = target: AtPYL5:ΔNHAB1 (Arabidopsis thaliana, UniProt Q9FLB1); experiment: Native red electrophoresis of ligand-induced ternary complex
# Sequence of AtPYL5:ΔNHAB1 (Q9FLB1 whole entry, stated change not applied): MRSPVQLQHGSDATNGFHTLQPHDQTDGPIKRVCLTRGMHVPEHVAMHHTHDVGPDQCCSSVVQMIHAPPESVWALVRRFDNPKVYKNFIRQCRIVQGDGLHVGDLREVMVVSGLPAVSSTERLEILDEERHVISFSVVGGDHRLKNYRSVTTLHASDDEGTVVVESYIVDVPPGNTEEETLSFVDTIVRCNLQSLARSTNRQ
# Experimental: Electrophoresis was performed at a constant current of 25 mA for 150 min at 4°C. Proteins were detected in gel by InstantBlue staining, and band quantification was performed using the ImageJ software. To obtain apparent Kd values, the proportion of ternary complex formed (fraction bound) and the ABA or iSB09 free concentration in each lane were calculated and plotted as represented in Fig. 3 (E and F). Then, the dose-response curves were fitted to the classical Hill equation using the GraphPad Prism software.
# [7] = target: T3, HAB1 with AtPYL4 (Arabidopsis thaliana, UniProt O80920); experiment: PP2C inhibition assay, HAB1 with AtPYL4; type: biochemical; conditions: 1 µM phosphatase:2 µM receptor
# T3 construct: His; made in house
# T3 sequence (Q9CAJ0 179-511): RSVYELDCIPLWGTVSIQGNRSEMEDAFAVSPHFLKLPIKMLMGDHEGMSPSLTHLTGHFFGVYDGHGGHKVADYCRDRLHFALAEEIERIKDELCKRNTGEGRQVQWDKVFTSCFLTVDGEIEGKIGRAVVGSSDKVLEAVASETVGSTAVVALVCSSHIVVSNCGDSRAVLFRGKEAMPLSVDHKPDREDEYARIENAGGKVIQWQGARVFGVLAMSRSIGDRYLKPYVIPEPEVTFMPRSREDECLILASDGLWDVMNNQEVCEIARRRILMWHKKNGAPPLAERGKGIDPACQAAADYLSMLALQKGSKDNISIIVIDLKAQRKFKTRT
# T3 sequence (O80920 whole entry): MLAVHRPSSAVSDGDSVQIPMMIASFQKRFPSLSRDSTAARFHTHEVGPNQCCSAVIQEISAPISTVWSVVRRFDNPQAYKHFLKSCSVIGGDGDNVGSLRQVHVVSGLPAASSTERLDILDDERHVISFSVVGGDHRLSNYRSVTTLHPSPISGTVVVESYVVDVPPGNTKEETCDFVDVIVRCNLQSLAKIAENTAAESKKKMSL
# Experimental: His-tagged receptors and phosphatases were purified using nickel–nitrilotriacetic acid (Ni-NTA) affinity chromatography. Protein integrity was analyzed by SDS–polyacrylamide gel electrophoresis, followed by InstantBlue staining. Phosphatase activity was measured using p-Nitrophenyl Phosphate (pNPP) (25 mM) as substrate, 10 mM MnCl2,1 μM PP2C, and 2 μM of the indicated receptors. Proteins were incubated with the ligands for 10 min at room temperature. pNPP was then added to start the reactions, and the absorbance at 405 nm was monitored for 20 min in a ViktorX5 plate reader. Assays were repeated twice. For dose-response experiments, IC50 values were obtained with GraphPad Prism 9 using a nonlinear regression curve fit. Each ligand concentration was tested in triplicate. Phosphatase activity of ABI1 was measured using RRA(phosphoT)VA peptide as a substrate, as described ([27]).
# (§4) Fig. S6. QB lacks bioactivity in tomato whereas iSB09 is
# (§5) (A) Quantification of the leaf temperature difference at 2 and 5 days after spraying tomato plants with 0.1 % DMSO
# (§6) (mock- treated control), 10 µM iSB09 or 10 µM QB.
# Asterisk indicates p<0.001 (Student’s t test). Values show individual points and average ± SD (n=4 replicates for mock and chemical treatments). (B) IR-images of representative tomato plants at 2 days after being treated with 0.1 % DMSO […]
# [8] = system: tomato plants; experiment: IR thermography of leaf temperature, tomato; type: in vivo, Solanum lycopersicum; conditions: 10 μM, 2 and 5 days after spraying
# Experimental: For experiments using N. benthamiana or S. lycopersium, 1-month-old plants grown under long-day conditions (16-hour light/8-hour dark) were sprayed with 10 mM MES (pH 5.7) + 0.02% Silwet L77 supplemented with either 50 μM ABA, or the indicated concentration of iSB07/iSB09 or 0.1% DMSO as a mock-treated control. IR images were taken using a FLIR E95 thermocamera 1 day after the treatment (for N. benthamiana) or 2 and 5 days (for S. lycopersicum). Quantification was performed using the FLIR tools software on fully expanded leaves by analyzing 10 sections per leaf. At least six plants per genotype and treatment were analyzed in each experiment. Experiments were repeated twice. The average plant temperature ± SD of all the plants for each treatment and genotype was calculated and used to report the increase in temperature produced by each treatment. Statistical comparisons among genotypes were performed by either pairwise t tests or one-way ANOVA.
# as §4, §5, §6
# Asterisk indicates p<0.001 (Student’s t test). Values show individual points and average ± SD (n=4 replicates for mock and chemical treatments). (B) IR-images of representative tomato plants at 2 days after being treated with 0.1 % DMSO
# Photographs were taken with white light (leaf panel) or infrared thermography (right panel) using the camera FLIR
# HAB1 phosphatase activity in presence of PYL4. IC50 values for iSB09 or QB-dependent inhibition of HAB1 by AtPYL4. Values (average of duplicates) show PP2C activity after incubation with the indicated concentration of ligand and AtPYL4 at 1:2 ratio (1 µM phosphatase:2 µM receptor).
# (1 picture or pasted object on this page, not shown here)
# [9] = target: T4, ΔNHAB1 with AtPYL1 (Arabidopsis thaliana, UniProt Q8VZS8); conditions: AtPYL1 ref 45; cited from earlier work
# T4 construct: His; made in house
# T4 sequence (Q8VZS8 whole entry, stated change not applied): as the sequence (Q8VZS8 whole entry) above
# [10] = target: T5, ΔNHAB1 with AtPYL10 (Arabidopsis thaliana, UniProt Q8H1R0); conditions: AtPYL10 ref 45; cited from earlier work
# T5 construct: His; made in house
# T5 sequence (Q8H1R0 whole entry, stated change not applied): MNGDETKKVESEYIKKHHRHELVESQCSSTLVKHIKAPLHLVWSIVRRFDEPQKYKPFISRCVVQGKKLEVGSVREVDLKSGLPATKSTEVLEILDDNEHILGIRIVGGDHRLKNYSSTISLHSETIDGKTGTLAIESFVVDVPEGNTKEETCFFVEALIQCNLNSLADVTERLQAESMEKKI
# [11] = system: Arabidopsis thaliana seedlings (WT Col-0, overexpressing lines, receptor mutants); conditions: pyr1 pyl1 double mutant ref 36; cited from earlier work
# [12] = system: Arabidopsis thaliana seedlings; experiment: Root growth assay; type: in vivo; conditions: 10 μM
# Experimental: Seedlings were grown on vertically oriented Murashige and Skoog (MS) plates for 4 to 5 days. Afterward, seedlings were transferred to MS supplemented with the indicated concentrations of the different ligands and kept on vertical orientation. Ten days later, the plates were scanned on a flatbed scanner to produce image files suitable for quantitative analysis of root growth using the NIH Image software ImageJ. The experiment was performed in triplicate (n = 13 to 16). Statistical comparisons were performed by either pairwise t tests or one-way ANOVA using GraphPad Prism 9.
# [13] = system: Arabidopsis thaliana plants (WT Col-0, CsPYL1^5m lines); experiment: Whole-plant gas exchange, stomatal conductance (Gs); type: in vivo
# Experimental: A. thaliana seeds were planted in specific gas exchange pots, where above- and below-ground parts can be separated by glass into 2:1 (v:v) peat:vermiculite mixture. The plants were grown in growth chambers (Snijders Scientific, Drogenbos, Belgium) at 12/12 photoperiod, 23/18°C temperature, 160 μmol m^−2 s^−1 light, and 70% relative humidity and were 23 to 28 days old during gas exchange experiments. Whole-rosette stomatal conductances were recorded with an eight-chamber custom-built temperature-controlled gas exchange device as described before ([72]). Plants were inserted into the measurement cuvettes and allowed to stabilize at standard conditions: ambient CO2, ~420 ppm; air temperature, 24° ± 0.5°C; light, 160 μmol m^−2 s^−1; relative air humidity, 66 ± 3%. For sprayings, plants were removed from gas exchange cuvettes, sprayed with respective solutions, and put back into the cuvettes for stomatal conductance recordings for 56 min. To check the long-term effect of compounds on plants, stomatal conductance measurements were performed about 24 and 48 hours after sprayings. In the meantime, plants were kept in growth chambers as described above. Photographs of plants were taken after the experiment, and leaf rosette area was calculated using ImageJ 1.37v [National Institutes of Health (NIH), USA]. Stomatal conductance for water vapor was calculated with a custom-written program as described ([72]).
# [14] = system: Arabidopsis thaliana plants; experiment: IR thermography of leaf temperature, arabidopsis; type: in vivo; conditions: transgenic CsPYL1^5m lines and Col-0, 50 μM, 24 hours after spraying
# Experimental: A. thaliana plants were grown in a controlled environment growth chamber at 21°/19°C under 8-hour light/16-hour dark photoperiod at 100 μE m^−2 s^−1. IR thermography images of rosette leaves were acquired with a thermal camera FLIR E95 equipped with a 42° lens, 24 hours after spraying 6-week-old plants with 10 mM MES (pH 5.7) + 0.02% Silwet L-77 plus 50 μM ligand or 0.1% DMSO as a control. Images were processed and quantified with the FLIR tools software. The average temperature of 15 different sections taken from four to six leaves per plant was used for quantification. At least six plants per genotype were analyzed, and the experiments were repeated twice. Statistical analysis was performed using GraphPad Prism 9. T test or ANOVA analysis was carried out to identify statistical significance among datasets.
# [15] = system: MAPKKK18 promoter-LUC reporter; experiment: pMAPKKK18-LUC luciferase reporter assay; type: in vivo, Arabidopsis thaliana; conditions: 100 μM, 6 hours
# Experimental: […]18-LUC seedlings were grown in 24-well plates (25 to 35 seeds per well) filled with 1 ml of liquid MS medium for 7 days. MS medium was replaced with fresh medium supplemented with 100 μM D-luciferin, potassium salt (GoldBio), and the indicated treatments with iSB07, iSB09, or ABA. Seedlings were incubated for 6 hours, and luminescence was recorded with a LAS-3000 imager (Fujifilm) equipped with a charge-coupled device camera using 2-min exposures. Eight-bit images were transformed in rainbow false color and quantified using Fiji. The experiment was repeated at least twice.
smiles,measurement,setting,value
"CC1=CC(=O)CC(C)(C)[C@@]1(O)/C=C/C(C)=C\C(=O)O [ABA, abscisic acid, reference compound]",IC50 of ABA for CsPYL1^5m compared to WT CsPYL1,[1],fourfold increase
same,IC50,[2],274 nM
same,IC50,[3],200 nM
same,IC50,"[4]; read-out: Germination IC50, WT Col-0",216 nM
same,IC50,"[4]; read-out: Germination IC50, line expressing CsPYL1",304 nM
same,IC50,"[4]; read-out: Germination IC50, line expressing CsPYL1^5m",458 nM
same,leaf temperature by thermal imaging,[5],increased leaf temperature
same,Kd,[6],2100 nM
"CCCN1C(=O)CCc2cc(NS(=O)(=O)Cc3ccc(C)cc3)ccc21 [QB, quinabactin]",IC50,[7],1880 nM
same,bioactivity in tomato (leaf temperature),[8],lacked bioactivity
same,receptor activation,[9],activates AtPYL1
same,receptor activation,[10],not AtPYL10
same,effect in pyr1 pyl1 double mutant,[11],lack effect
CCCN1C(=O)CCc2cc(NS(=O)(=O)Cc3c(F)c(F)c(C)c(F)c3F)ccc21 [AMF4],effect in pyr1 pyl1 double mutant,[11],lack effect
Cc1cc(=O)n(C)c2ccc(CNS(=O)(=O)c3ccccc3)cc12 [iSB07],IC50,"[4]; WT Col-0, read-out: Germination IC50",12700 nM
same,IC50,"[4]; line expressing CsPYL1, read-out: Germination IC50",4030 nM
same,IC50,"[4]; line expressing CsPYL1^5m, read-out: Germination IC50",943 nM
same,inhibition of root growth,[12]; CsPYL1^5m lines,marked inhibition
same,inhibition of root growth,[12]; WT plants,did not significantly inhibit
same,reduction of stomatal conductance (Gs),"[13]; WT, spraying with 20 μM",not effective
same,reduction of Gs 24 and 48 hours after spraying,"[13]; transgenic lines, 5 μM",nonsignificant
same,leaf temperature by thermal imaging,[14],increased leaf temperature
same,leaf temperature by thermal imaging,[5],increased leaf temperature
same,induction of LUC relative to iSB09,[15],approximately fivefold lower

# From PMC10005185, “Structure-guided engineering of a receptor-agonist pair for inducible activation of the ABA adaptive response to drought” (Science Advances, 2023)
